Source: US9546164B2 (GENENTECH, INC., priority 2013, dated 2017)
Structures can show the parent of a compound that is named as a salt.

Each compound was assayed against hNav1.7 (Homo sapiens (Human), UniProt Q15858) (assay: Tritiated sulfonamide competitive binding to membranes from cells expressing hNav1.7 and the β1 subunit). Details: not given.
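Also: Filter-bound radioactivity counted by liquid scintillation, nonspecific binding defined with excess unlabelled ligand, IC50 fitted to percent inhibition of specific binding.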

hNav1.7, sequence (Q15858 other isoform, or with tags, fused parts or gaps): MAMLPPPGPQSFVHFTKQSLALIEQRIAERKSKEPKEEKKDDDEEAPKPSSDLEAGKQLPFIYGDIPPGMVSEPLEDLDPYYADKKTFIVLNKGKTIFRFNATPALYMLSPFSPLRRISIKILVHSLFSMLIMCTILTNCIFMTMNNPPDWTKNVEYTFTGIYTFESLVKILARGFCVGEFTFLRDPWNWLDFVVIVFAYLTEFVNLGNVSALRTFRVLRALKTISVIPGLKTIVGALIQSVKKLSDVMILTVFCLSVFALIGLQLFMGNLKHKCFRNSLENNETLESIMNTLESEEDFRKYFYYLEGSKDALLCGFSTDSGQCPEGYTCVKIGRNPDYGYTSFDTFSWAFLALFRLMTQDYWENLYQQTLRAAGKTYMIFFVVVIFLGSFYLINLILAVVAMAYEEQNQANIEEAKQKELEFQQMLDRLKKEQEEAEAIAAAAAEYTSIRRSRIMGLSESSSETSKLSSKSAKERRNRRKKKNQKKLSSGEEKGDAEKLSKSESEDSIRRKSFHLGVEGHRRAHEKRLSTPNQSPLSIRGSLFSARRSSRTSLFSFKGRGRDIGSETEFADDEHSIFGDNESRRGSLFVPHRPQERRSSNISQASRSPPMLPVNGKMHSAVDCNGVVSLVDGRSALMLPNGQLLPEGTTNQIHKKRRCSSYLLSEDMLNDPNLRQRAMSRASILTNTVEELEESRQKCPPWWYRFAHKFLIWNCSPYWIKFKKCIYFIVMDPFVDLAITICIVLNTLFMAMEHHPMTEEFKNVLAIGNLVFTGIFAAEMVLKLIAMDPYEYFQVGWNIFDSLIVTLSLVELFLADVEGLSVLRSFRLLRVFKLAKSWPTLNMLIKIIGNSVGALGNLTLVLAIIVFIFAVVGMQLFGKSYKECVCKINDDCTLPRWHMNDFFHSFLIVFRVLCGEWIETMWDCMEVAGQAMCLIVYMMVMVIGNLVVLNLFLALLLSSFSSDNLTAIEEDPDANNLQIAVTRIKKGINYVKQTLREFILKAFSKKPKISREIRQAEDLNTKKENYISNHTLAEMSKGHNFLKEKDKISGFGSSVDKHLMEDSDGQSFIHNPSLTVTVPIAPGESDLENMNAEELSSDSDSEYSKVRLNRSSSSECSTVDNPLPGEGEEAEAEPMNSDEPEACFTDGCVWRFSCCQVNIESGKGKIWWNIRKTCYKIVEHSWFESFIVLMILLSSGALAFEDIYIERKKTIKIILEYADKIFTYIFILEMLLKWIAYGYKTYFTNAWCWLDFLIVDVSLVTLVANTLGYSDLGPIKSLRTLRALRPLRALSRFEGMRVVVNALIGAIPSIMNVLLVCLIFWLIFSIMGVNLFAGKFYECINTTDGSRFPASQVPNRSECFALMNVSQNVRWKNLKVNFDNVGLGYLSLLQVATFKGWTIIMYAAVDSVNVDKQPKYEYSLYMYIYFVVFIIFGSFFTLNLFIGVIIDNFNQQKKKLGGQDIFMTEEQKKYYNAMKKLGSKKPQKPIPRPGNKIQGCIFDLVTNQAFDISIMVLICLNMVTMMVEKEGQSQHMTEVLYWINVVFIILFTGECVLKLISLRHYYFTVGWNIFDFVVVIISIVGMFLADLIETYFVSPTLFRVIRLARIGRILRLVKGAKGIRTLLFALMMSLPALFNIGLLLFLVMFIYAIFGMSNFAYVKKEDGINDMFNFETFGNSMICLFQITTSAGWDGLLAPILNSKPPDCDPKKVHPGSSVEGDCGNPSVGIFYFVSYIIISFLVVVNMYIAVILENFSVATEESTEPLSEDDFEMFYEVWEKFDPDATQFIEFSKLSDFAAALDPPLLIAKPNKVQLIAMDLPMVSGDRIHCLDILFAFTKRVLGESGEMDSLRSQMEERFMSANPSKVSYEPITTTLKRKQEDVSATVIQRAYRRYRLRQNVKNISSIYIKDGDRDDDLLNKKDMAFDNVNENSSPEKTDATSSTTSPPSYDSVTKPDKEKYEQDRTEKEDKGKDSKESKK
hNav1.7, sequence (Q07699 19-218 partner): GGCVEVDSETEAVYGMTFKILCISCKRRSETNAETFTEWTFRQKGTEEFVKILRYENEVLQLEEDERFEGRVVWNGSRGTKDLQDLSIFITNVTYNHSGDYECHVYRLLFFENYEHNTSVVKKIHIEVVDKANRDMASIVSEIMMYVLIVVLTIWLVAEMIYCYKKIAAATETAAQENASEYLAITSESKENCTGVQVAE

Compound	IC50 [nM]
O=C(NS(=O)(=O)C1CC1)c1cc(C2CC2)c(CN2CCN(S(=O)(=O)c3cc(Cl)cc(Cl)c3)CC2)cc1F [Example 527, 5-cyclopropyl-N-(cyclopropylsulfonyl)-4-((4-((3,5-dichlorophenyl)sulfonyl)piperazin-1-yl)methyl)-2-fluorobenzamide, trifluoroacetic acid salt]	9.9
O=C(NS(=O)(=O)C1CC1)c1cc(C2CC2)c(CN2CC(Oc3cc(Cl)cc(Cl)c3)C2)cc1F [Example 545, 5-cyclopropyl-N-(cyclopropylsulfonyl)-4-((3-(3,5-dichlorophenoxy)azetidin-1-yl)methyl)-2-fluorobenzamide, trifluoroacetic acid salt]	3.4

Now from value to compound:

IC50 [nM]	Compound
7.9	CS(=O)(=O)NC(=O)c1cc(C2CC2)c(CN2CCC(Oc3cc(C(F)(F)F)c(Cl)cn3)CC2)cc1F [Example 521, 4-((4-((5-chloro-4-(trifluoromethyl)pyridin-2-yl)oxy)piperidin-1-yl)methyl)-5-cyclopropyl-2-fluoro-N-(methylsulfonyl)benzamide, trifluoroacetic acid salt]
2.2	O=C(NS(=O)(=O)C1CC1)c1cc(C2CC2)c(CN2CCC(Sc3cc(Cl)cc(Cl)c3)CC2)cc1F [Example 531, 5-cyclopropyl-N-(cyclopropylsulfonyl)-4-((4-((3,5-dichlorophenyl)thio)piperidin-1-yl)methyl)-2-fluorobenzamide, trifluoroacetic acid salt]

Same assay, conditions: read-out: Ligand Binding Assay; 100 pM [3H]compound, membranes with hNav1.7 and β1 subunit, 18 h, room temperature

Compound	IC50 [nM]
CCS(=O)(=O)NC(=O)c1cc(C2CC2)c(OCC2CCN(C(C)c3cc(Cl)cc(Cl)c3)CC2)cc1F (stereo not shown) [Example 101, 5-Cyclopropyl-4-((1-(1-(3,5-dichlorophenyl)ethyl)piperidin-4-yl)methoxy)-N-(ethylsulfonyl)-2-fluorobenzamide]	3.76
CC(C)N(C(=O)CN1CCC(COc2cc(F)c(C(=O)NS(C)(=O)=O)cc2C2CC2)CC1)C(C)C [Example 180, 5-Cyclopropyl-4-((1-(2-(diisopropylamino)-2-oxoethyl)piperidin-4-yl)methoxy)-2-fluoro-N-(methylsulfonyl)benzamide]	9900
COC[C@@H](c1cc(Cl)cc(Cl)c1)N1CCC(COc2cc(F)c(C(=O)NS(=O)(=O)N3CCC3)cc2C2CC2)CC1 (single isomer, unassigned) [Example 166]	3.9
5-Cyclopropyl-2-fluoro-N-(methylsulfonyl)-4-((1-(1-phenylethyl)-piperidin-4-yl)methoxy)benzamide [Example 146]	276
C[C@H]1CC[C@@H](Oc2cc(F)c(C(=O)NS(=O)(=O)C3CC3)cc2C2CC2)CN1Cc1ccc(F)cc1Cl [Example 326, 4-(((3R,6S)-1-(2-chloro-4-fluorobenzyl)-6-methylpiperidin-3-yl)oxy)-5-cyclopropyl-N-(cyclopropylsulfonyl)-2-fluorobenzamide]	2.9
O=C(NS(=O)(=O)N1CCC1)c1cc(C2CC2)c(CN2CCO[C@H](Cc3ccc(F)cc3Cl)C2)cc1F [Example 468, (R)-N-(azetidin-1-ylsulfonyl)-4-((2-(2-chloro-4-fluorobenzyl)morpholino)methyl)-5-cyclopropyl-2-fluorobenzamide, trifluoroacetic acid salt]	11.3
CS(=O)(=O)NC(=O)c1cc(C2CC2)c(OCC2CN([C@@H](c3ccccc3)c3ccccc3F)C2)cc1F [Example 124, (S)-5-Cyclopropyl-2-fluoro-4-((1-((2-fluorophenyl)(phenyl)methyl)azetidin-3-yl)methoxy)-N-(methylsulfonyl)benzamide]	71.3
CS(=O)(=O)NC(=O)c1cc(C2CC2)c(OCC2CN([C@H](c3ccccc3)c3ccc(OC(F)(F)F)cc3)C2)cc1F [Example 113, (R)-5-Cyclopropyl-2-fluoro-N-(methylsulfonyl)-4-((1-(phenyl(4-(trifluoromethoxy)phenyl)methyl)azetidin-3-yl)methoxy)benzamide]	11.1
CC[C@@H](c1cc(Cl)cc(Cl)c1)N1CCC(COc2cc(F)c(C(=O)NS(C)(=O)=O)cc2C2CC2)CC1 [Example 241, (S)-5-cyclopropyl-4-((1-(1-(3,5-dichlorophenyl)propyl)piperidin-4-yl)methoxy)-2-fluoro-N-(methylsulfonyl)benzamide]	2.7
CS(=O)(=O)NC(=O)c1cc(C2CC2)c(OCC2CN([C@@H](c3ccccc3)c3cccnc3)C2)cc1F [Example 82]	408
O=C(NS(=O)(=O)C1CC1)c1cc(C2CC2)c(OCC2CCN(S(=O)(=O)c3ccc(F)c(Cl)c3)CC2)cc1F [Example 383, 4-((1-((3-chloro-4-fluorophenyl)sulfonyl)piperidin-4-yl)methoxy)-5-cyclopropyl-N-(cyclopropylsulfonyl)-2-fluorobenzamide]	14.8
CS(=O)(=O)NC(=O)c1cc(C2CC2)c(OCC2CCN(Cc3ccc(F)c(F)c3)CC2)cc1F [Example 160, 5-Cyclopropyl-4-((1-(3,4-difluorobenzyl)piperidin-4-yl)methoxy)-2-fluoro-N-(methylsulfonyl)benzamide]	62.8
CC1(COc2cc(F)c(C(=O)NS(=O)(=O)C3CC3)cc2C2CC2)CN(c2ncc(Cl)cc2F)C1 [Example 483, 4-((1-(5-chloro-3-fluoropyridin-2-yl)-3-methylazetidin-3-yl)methoxy)-5-cyclopropyl-N-(cyclopropylsulfonyl)-2-fluorobenzamide]	5.2
CC(C)(C)c1ccc(CN2CCC[C@@H](Oc3cc(F)c(C(=O)NS(C)(=O)=O)cc3C3CC3)C2)cc1 [Example 425, (R)-4-((1-(4-(tert-butyl)benzyl)piperidin-3-yl)oxy)-5-cyclopropyl-2-fluoro-N-(methylsulfonyl)benzamide, trifluoroacetic acid salt]	2.9
COC[C@@H](c1ccc(F)c(Cl)c1)N1CCC(COc2cc(F)c(C(=O)NS(C)(=O)=O)cc2C2CC2)CC1 (single isomer, unassigned) [Example 181]	11

The remaining lines, values ahead:

IC50 [nM]	Compound
9.2	CC1(COc2cc(F)c(C(=O)NS(=O)(=O)C3CC3)cc2C2CC2)CN(c2ccc(C(F)(F)F)cn2)C1 [Example 488, 5-cyclopropyl-N-(cyclopropylsulfonyl)-2-fluoro-4-((3-methyl-1-(5-(trifluoromethyl)pyridin-2-yl)azetidin-2-3-yl)methoxy)benzamide, trifluoroacetic acid salt]
5.7	O=C(NS(=O)(=O)N1CCC1)c1cc(C2CC2)c(OCC2CCN(Cc3ccc(C4CC4)cc3Cl)CC2)cc1F [Example 417, N-(azetidin-1-ylsulfonyl)-4-((1-(2-chloro-4-cyclopropylbenzyl)piperidin-4-yl)methoxy)-5-cyclopropyl-2-fluorobenzamide, trifluoroacetic acid salt]
2.7	CC1(COc2cc(F)c(C(=O)NS(=O)(=O)C3CC3)cc2C2CC2)CCN(c2cc(C(F)(F)F)c(Cl)cn2)CC1 [Example 557, 4-((1-(5-chloro-4-(trifluoromethyl)pyridin-2-yl)-4-methylpiperidin-4-yl)methoxy)-5-cyclopropyl-N-(cyclopropylsulfonyl)-2-fluorobenzamide]
15	CC(c1cccc(Cl)c1)N1CCC(COc2cc(F)c(C(=O)NS(C)(=O)=O)cc2C2CC2)CC1 (stereo not shown) [Example 148, 4-((1-(1-(3-Chlorophenyl)ethyl)piperidin-4-yl)methoxy)-5-cyclopropyl-2-fluoro-N-(methylsulfonyl)benzamide]
31.9	C[C@H]1[C@@H](Oc2cc(F)c(C(=O)NS(C)(=O)=O)cc2C2CC2)CCCN1Cc1cc(Cl)cc(Cl)c1 [Example 330, 5-cyclopropyl-4-(((2S,3S)-1-(3,5-dichlorobenzyl)-2-methylpiperidin-3-yl)oxy)-2-fluoro-N-(methylsulfonyl)benzamide, trifluoroacetic acid salt]
40	CC1(COc2cc(F)c(C(=O)NS(C)(=O)=O)cc2C2CC2)CCN(C(=O)c2cc(Cl)c(Cl)cc2F)CC1 [Example 577, 5-cyclopropyl-4-((1-(4,5-dichloro-2-fluorobenzoyl)-4-methylpiperidin-4-yl)methoxy)-2-fluoro-N-(methylsulfonyl)benzamide]
4.4	COC[C@H](c1ccc(Cl)cc1Cl)N1CCC(COc2cc(F)c(C(=O)NS(C)(=O)=O)cc2C2CC2)CC1 [Example 282, (S)-5-cyclopropyl-4-((1-(1-(2,4-dichlorophenyl)-2-methoxyethyl)piperidin-4-yl)methoxy)-2-fluoro-N-(methylsulfonyl)benzamide]
22	O=C(NS(=O)(=O)N1CCC1)c1cc(C2CC2)c(CN2CCC[C@H](Oc3cc(Cl)cc(Cl)c3)C2)cc1F [Example 54, (S)—N-(azetidin-1-ylsulfonyl)-5-cyclopropyl-4-((3-(3,5-dichlorophenoxy)piperidin-1-yl)methyl)-2-fluorobenzamide, acetic acid salt]
1.88	CS(=O)(=O)NC(=O)c1cc(C2CC2)c(OCC2CCN(Cc3cc(Cl)cc(OC(F)(F)F)c3)CC2)cc1F [Example 136, 4-((1-(3-Chloro-5-(trifluoromethoxy)benzyl)piperidin-4-yl)methoxy)-5-cyclopropyl-2-fluoro-N-(methylsulfonyl)benzamide]
37.2	CS(=O)(=O)NC(=O)c1cc(C2CC2)c(CN2CCC(Oc3ccc(C(F)(F)F)cn3)CC2)cc1F [Example 476, 5-cyclopropyl-2-fluoro-N-(methylsulfonyl)-4-((4-((5-trifluoromethyl)pyridin-2-yl)oxypiperidin-1-yl)methyl)benzamide, trifluoroacetic acid salt]
12.3	CCC(c1cc(Cl)cc(Cl)c1)N1CC(COc2cc(F)c(C(=O)NS(C)(=O)=O)cc2C2CC2)C1 (stereo not shown) [Example 158, 5-Cyclopropyl-4-((1-(1-(3,5-dichlorophenyl)propyl)azetidin-3-yl)methoxy)-2-fluoro-N-(methylsulfonyl)benzamide]
98.9	CC1(C)CO[C@H](Cc2cc(Cl)cc(Cl)c2)CN1Cc1cc(F)c(C(=O)NS(C)(=O)=O)cc1C1CC1 [Example 469, (R)-5-cyclopropyl-4-((2-(3,5-dichlorobenzyl)-5,5-dimethylmorpholino)methyl)-2-fluoro-N-(methylsulfonyl)benzamide, trifluoroacetic acid salt]
